Experimental data published in patent US20210396738A1, “3D HUMAN CANCER MODEL-BASED COMBINATORIAL DRUG DEVELOPMENT METHOD” (PreComb Therapeutics AG, priority 2018, published 2021).
Entries after “also recorded” stand apart in the source; their conditions may differ. Like-named read-outs stand apart in the source and are kept apart here.

Legend:
[1] = tested on: connective/stromal microtissues (Wi38); test: Tox testing on connective/stromal microtissues; assay type: cell-based, human; settings: dosed 2× for 8h with an 8h gap (FIG. 13A, C)
Method: (§1) FIG. 13 exemplifies tox testing of single drugs using connective/stromal microtissues (Wi38) and efficacy testing on non-small cell tumor microtissues (A549; Wi38). Vinorelbin and Docetaxel, both disrupting microtubule, were dosed 2× for 8h with an 8h gap.

[2] = tested on: NSCLC microtumors (A549 NSCLC cells with human lung fibroblasts Wi38); test: Non-small cell lung cancer (NSCLC) microtumor size/growth assay; assay type: cell-based; settings: for efficacy: impact on tumor growth: Vinorelbin high concentration vs low and high concentrated Docetaxel, dosed 2× for 8h with an 8h gap (FIG. 13B, D); for effect on NSCLC microtumor growth: dosed 2× for 8h with 48h gap (FIG. 6, FIG. 11); for Response: 14 days window
Method: The NSCLC model was produced by mixing A549 NSCLC cells (ATCC® CCL-18S™) with human lung fibroblasts (Wi38, ATCC® CCL-7S™) in a non-adhesive 96-well plate (GravityTRAP™). Drugs were dosed 2× for 8h with 48h gap.
Single and drug combinations were dosed 2× for 8h with a gap of 48h and growth monitored over time.
as §1

[3] = tested on: pancreatic microtumors from pancreatic cancer cell line Panc-1 in co-culture with mouse fibroblast cell line NIH3T3; test: Pancreatic microtumor (3D microtissue) size/growth assay; settings: for effect on pancreatic microtumor growth: dosed for 8h with a 48h gap (FIG. 5); for Response: 14 days window; for ΔT14/ΔC14: day 14
Method: Both cells were expanded in cell culture flasks using Dulbecco's modification of Eagle medium (DMEM) supplemented with 10% fetal calf serum. After reaching confluency the were removed from the cell culture flask enzymatic digestion (Trypsin). Cell numbers of both cell types were assessed using a Neubauer chamber, and the respective cell number mixed to produce the co-culture microtumors. Seventy ul of the cell mixture was inoculated in each well of a non-adhesive 96-well plates (GravityTRAP™) using Dulbecco's modification of Eagle medium (DMEM) supplemented with 10% horse serum. Pancreatic microtumors were matured in a mammalian cell culture incubator at 37° C. with 5% CO2. […] After 48 hours the drug was removed by changing the culture medium with drug-free medium. The size of the pancreatic microtumors was monitored prior dosing and continuously after dosing using bright field microscopy. Growth is presented relative to the size of the pancreatic tumor microtissue prior compound treatment t0 (adapted from the RECIST criteria).
All drugs used were dissolved according to the manufactures protocol.

[4] = tested on: microtumors from NSCLC cells directly derived from patients (NSCLC resection); test: Patient-derived NSCLC microtumor growth assay; assay type: cell-based, human; settings: dosed 2× for 8h with a 48h gap (FIG. 12)
Method: A NSCLC resection was dissociated, and the cell Suspension used to produce microtumors in a multi-well format (FIG. 12A). Drugs were dosed 2× for 8h with a 48h gap.

[5] = reference cmax used for potency; cited from earlier work

In the case of `CC(=O)O[C@@]12CO[C@@H]1C[C@H](O)[C@@]1(C)C(=O)[C@H](O)C3=C(C)[C@@H](OC(=O)[C@H](O)[C@@H](NC(=O)OC(C)(C)C)c4ccccc4)C[C@@](O)([C@@H](OC(=O)c4ccccc4)[C@H]21)C3(C)C` [Docetaxel], the “cytotoxicity on stromal microtissues compared to untreated control” value ([1]; 4.05 ug/ml) is reported as “less toxicity”, the “efficacy: impact on tumor growth” value [2] is reported as “higher efficacy” and the “effect on pancreatic microtumor growth” value [3] is reported as “much slower”. For the same compound, the sustainability of response ([3]; dosed for 8h with a 48h gap, compared with Gemcitabine (FIG. 5A)) was “more sustainable”.

For `C#Cc1cccc(Nc2ncnc3cc(OCCOC)c(OCCOC)cc23)c1` [Erlotinib], the “effect on NSCLC microtumor growth” value [2] was “reduced growth”, the “time after which growth relapses” value ([2]; dosed 2× for 8h with a gap of 48h (FIG. 11)) was > 7 days and the “impact on tumor growth, single doses” value [4] was “hardly an impact on tumor growth”.

For `Nc1ccn([C@@H]2O[C@H](CO)[C@@H](O)C2(F)F)c(=O)n1` [Gemcitabine], the “Time to MR (TMR)” value ([2]; Gemcitabine 0.1 ug/ml) was 14 days, the Response ([2]; Gemcitabine 0.1 ug/ml) was “RE (≥20% decrease in microtumor size)” and the ΔT14/ΔC14 ([2]; Gemcitabine 0.1 ug/ml, day 14) was −2.72. For the same compound, the “Time to MR (TMR)” value ([2]; Gemcitabine 0.3 ug/ml) was 14 days, the Response ([2]; Gemcitabine 0.3 ug/ml) was “RE (≥20% decrease in microtumor size)” and the ΔT14/ΔC14 ([2]; Gemcitabine 0.3 ug/ml, day 14) was −4.04. The “Time to MR (TMR)” value ([2]; Gemcitabine 0.5 ug/ml) was 14 days, the Response ([2]; Gemcitabine 0.5 ug/ml) was “RE (≥20% decrease in microtumor size)” and the ΔT14/ΔC14 ([2]; Gemcitabine 0.5 ug/ml, day 14) was −3.87. The median cmax [5] was “(median cmax = 20 ug/ml)”, the “Time to MR (TMR)” value ([3]; Gemcitabine 0.1 ug/ml) was 10 days and the “Time until relapse (TR)” value ([3]; Gemcitabine 0.1 ug/ml) was 10 days. For the same compound, the Response ([3]; Gemcitabine 0.1 ug/ml) was “SR (+/−20% increase/decrease in size)”, the ΔT14/ΔC14 ([3]; Gemcitabine 0.1 ug/ml, treatment effect to untreated control) was −0.25 and the “Time to MR (TMR)” value ([3]; Gemcitabine 0.5 ug/ml) was 10 days. The “Time until relapse (TR)” value ([3]; Gemcitabine 0.5 ug/ml) was 10 days, the Response ([3]; Gemcitabine 0.5 ug/ml) was “SR (+/−20% increase/decrease in size)” and the ΔT14/ΔC14 ([3]; Gemcitabine 0.5 ug/ml) was −0.23. For the same compound, the “effect on pancreatic microtumor growth” value [3] was “unfolds its effect quickly” and the “day after which treated microtumors relapsed” value ([3]; dosed for 8h with a 48h gap (FIG. 5A)) was > 10 days.

With `CCc1c2c(nc3ccc(OC(=O)N4CCC(N5CCCCC5)CC4)cc13)-c1cc3c(c(=O)n1C2)COC(=O)[C@]3(O)CC` [Irinotecan] the ΔT14/ΔC14 [2] was −0.32, the “Time to MR (TMR)” value ([2]; Irinotecan 6.75 ug/ml) was 4 days and the “Time until relapse (TR)” value ([2]; Irinotecan 6.75 ug/ml) was 5 days. For the same compound, the ΔT14/ΔC14 ([2]; Irinotecan 6.75 ug/ml, day 14) was −0.60, the “Time to MR (TMR)” value ([2]; Irinotecan 27 ug/ml) was 14 days and the Response ([2]; Irinotecan 27 ug/ml) was “RE (≥20% decrease in microtumor size)”. The ΔT14/ΔC14 ([2]; Irinotecan 27 ug/ml, day 14) was −3.09, the median cmax [5] was “(median cmax = 5 ug/ml)” and the Response ([3]; Irinotecan 0.675 ug/ml) was “PR (≥20%-100% increase in microtumor size)”. The ΔT14/ΔC14 ([3]; Irinotecan 0.675 ug/ml) was 1.04, the “Time to MR (TMR)” value ([3]; Irinotecan 6.75 ug/ml) was 7 days and the “Time until relapse (TR)” value ([3]; Irinotecan 6.75 ug/ml) was 7 days. The Response ([3]; Irinotecan 6.75 ug/ml) was “SR (+/−20% increase/decrease in size)”, the ΔT14/ΔC14 ([3]; Irinotecan 6.75 ug/ml) was 0.06 and the “Time to MR (TMR)” value ([3]; Irinotecan 67.5 ug/ml) was 14 days. The Response ([3]; Irinotecan 67.5 ug/ml) was “RE (≥20% decrease in microtumor size)”, the ΔT14/ΔC14 ([3]; Irinotecan 67.5 ug/ml) was −0.36 and the “dose to growth correlation” value ([3]; indicated concentrations, drug removed after 48 hours, growth relative to size at t0 (FIG. 4)) was “clear correlation of dose to growth”.

For `Nc1nc2[nH]cc(CCc3ccc(C(=O)N[C@@H](CCC(=O)O)C(=O)O)cc3)c2c(=O)[nH]1` [Pemetrexed], the “effect on NSCLC microtumor growth” value [2] was “tumor remission” and the “effect on pancreatic microtumor growth” value [3] was “did not affect tumor growth; also recorded: not active”.

In the case of `O=C1CCC(N2C(=O)c3ccccc3C2=O)C(=O)N1` (stereo not drawn) [Thalidomide], the “effect on NSCLC microtumor growth” value [2] is reported as “no significant impact on tumor growth remission” and the “impact on tumor growth, single doses” value [4] is reported as “hardly an impact on tumor growth”.

With `CCC1=C[C@@H]2CN(C1)Cc1c([nH]c3ccccc13)[C@@](C(=O)OC)(c1cc3c(cc1OC)N(C)[C@H]1[C@@](O)(C(=O)OC)[C@H](OC(C)=O)[C@]4(CC)C=CCN5CC[C@]31[C@@H]54)C2` [Vinorelbin] the “cytotoxicity on stromal microtissues compared to untreated control” value ([1]; high dose 0.68 ug/ml) was “elevated cytotoxicity” and the “efficacy: impact on tumor growth” value [2] was “less impact on tumor growth”.
